These results are taken from ChEMBL document CHEMBL1201862, “PubChem BioAssay data set” (2004).

Some test systems named below: 786-0; A498; COLO 205; HCT-116; HOP-62; HT-29; Hs-578T; LOX IMVI; MDA-MB-231; NCI-H460; OVCAR-4; OVCAR-5; RPMI-8226; SF-295; SK-MEL-28; SN12C; SNB-75; SW-620; UACC-257; UO-31.
Common to all, as to assay: inhibition of tumour cell growth, NCI panel, 48 h

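Dose response: 5 concentrations. Exposure: 48 h. Format: 96-well plates. Endpoint: linear interpolation; highest concentration if not reached. GI50 is the concentration that inhibits growth by half.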 Activity calls are given as the source filed them. Rule as the data show it: active = GI50 up to about 1.1 µM and inactive = higher.

As to `O=c1cc(CO)oc(C(O)c2ccccc2)c1O` (stereo not given), the GI50 in the test on 786-0, in the test on A498, with COLO 205, in the test on HCT-116, in the test with HOP-62 and in the test on HT-29 was > 100 µM (inactive) each time. Moreover, the GI50 in the test on Hs-578T, in the test with LOX IMVI, in the test on MDA-MB-231, in the test with NCI-H460, in the test on OVCAR-4 and in the test on OVCAR-5 was > 100 µM (inactive) in each case. The GI50 with RPMI-8226, in the test with SF-295, in the test with SK-MEL-28, in the test on SN12C, in the test with SNB-75 and with SW-620 was > 100 µM (inactive) throughout. In addition, the GI50 in the test with UACC-257 and with UO-31 was > 100 µM (inactive) in each case.
`C=C(C)C1CC2=C(C(=O)OC)C=C(O2)C(C(=C)C)[C@@H]2OC(=O)/C(=C\C1O)[C@H]2N(C)C` (stereo not given in full): the GI50 in the test on 786-0 is 8.05 µM (inactive); in the test with A498, 17.1 µM (inactive); with COLO 205, 9.4 µM (inactive); in the test with HCT-116, 13.8 µM (inactive); in the test on HOP-62, 19.4 µM (inactive); in the test with HT-29 it was 15 µM (inactive). Also, the GI50 is 18.9 µM (inactive) in the test with Hs-578T; 8.09 µM (inactive) in the test on LOX IMVI; 21.5 µM (inactive) in the test with MDA-MB-231; 15.2 µM (inactive) with NCI-H460; 5.64 µM (inactive) in the test with OVCAR-4; 16.5 µM (inactive) in the test on OVCAR-5. In addition, the GI50 with RPMI-8226 was 3.23 µM (inactive); in the test with SF-295, 17.5 µM (inactive); in the test with SK-MEL-28, 13.1 µM (inactive); with SN12C it was 12.5 µM (inactive); in the test with SNB-75 it was 14.6 µM (inactive); with SW-620, 7.33 µM (inactive). Also, the values for the GI50 in the test with UACC-257 and in the test with UO-31 were 20.9 µM (inactive) and 13.4 µM (inactive), respectively.
`O=S(=O)(c1ccccc1)N1CCN(S(=O)(=O)c2ccccc2)c2ccccc21`: the GI50 in the test with 786-0 is > 100 µM (inactive); in the test on A498, > 100 µM (inactive); in the test on COLO 205, > 100 µM (inactive); in the test with HCT-116, 45.2 µM (inactive); in the test with HOP-62 it was > 100 µM (inactive); with HT-29 it was 93.5 µM (inactive). Besides, the GI50 with Hs-578T, in the test on LOX IMVI, in the test on MDA-MB-231, in the test on NCI-H460, in the test with OVCAR-4 and with OVCAR-5 was > 100 µM (inactive) each time. Moreover, the GI50 in the test with RPMI-8226 was > 100 µM (inactive); in the test with SF-295, 81.8 µM (inactive); in the test with SK-MEL-28, > 100 µM (inactive); with SN12C, > 100 µM (inactive); in the test with SNB-75 it was > 100 µM (inactive); with SW-620, > 100 µM (inactive). The values for the GI50 in the test on UACC-257 and in the test with UO-31 were 75.5 µM (inactive) and > 100 µM (inactive), respectively.
With `O=C1c2cc3c(cc2CC12Cc1ccccc1C2)CCC3`, the GI50 with 786-0 was 21.1 µM (inactive); in the test with A498, 34.4 µM (inactive); in the test on COLO 205, 18.6 µM (inactive); in the test on HCT-116, 22.2 µM (inactive); with HOP-62 it was 27.8 µM (inactive); in the test on HT-29 it was 21.5 µM (inactive). Also, the GI50 with Hs-578T was 31.6 µM (inactive); in the test with LOX IMVI, 18.6 µM (inactive); in the test on MDA-MB-231, 23.6 µM (inactive); in the test with NCI-H460, 25.8 µM (inactive); in the test with OVCAR-4 it was 50.2 µM (inactive); in the test on OVCAR-5, 52.6 µM (inactive). The GI50 with RPMI-8226 is 21.9 µM (inactive); in the test on SF-295, 46.5 µM (inactive); in the test on SK-MEL-28 it was 57.4 µM (inactive); in the test with SN12C, 29.1 µM (inactive); in the test on SNB-75, 31.6 µM (inactive); with SW-620 it was 45.8 µM (inactive). The values for the GI50 with UACC-257 and in the test on UO-31 were 20.1 µM (inactive) and 26.2 µM (inactive), respectively.
With `O=C1/C(=C\c2ccc([N+](=O)[O-])cc2)Sc2scc(-c3ccc(O)c(O)c3)[n+]21`, the GI50 in the test on 786-0 was 3.73 µM (inactive); in the test with A498, > 10 µM (inactive); in the test on COLO 205, 2.34 µM (inactive); in the test on HCT-116, 4.2 µM (inactive); with HOP-62 it was 13.4 µM (inactive); in the test on HT-29, 3.31 µM (inactive). Also, the GI50 was 14.7 µM (inactive) with Hs-578T; 5.61 µM (inactive) in the test on LOX IMVI; 10.9 µM (inactive) in the test on MDA-MB-231; 4.06 µM (inactive) in the test with NCI-H460; 10.6 µM (inactive) in the test with OVCAR-4; 15.3 µM (inactive) with OVCAR-5. Moreover, the GI50 with RPMI-8226 is 2.55 µM (inactive); with SF-295, 12.5 µM (inactive); in the test on SK-MEL-28, 12.3 µM (inactive); in the test with SN12C, 4.5 µM (inactive); in the test on SNB-75, 9.25 µM (inactive); in the test on SW-620, 3.4 µM (inactive). Further, the GI50 with UACC-257 was 6.87 µM (inactive); in the test on UO-31 it was 4.72 µM (inactive).
Regarding `C=Cc1nc(C#N)c(N)o1`, the GI50 in the test on 786-0, in the test with A498, in the test on COLO 205, in the test with HCT-116, with HOP-62 and in the test with HT-29 was > 100 µM (inactive) in each case. The GI50 with Hs-578T, in the test on LOX IMVI, with MDA-MB-231, in the test with NCI-H460, in the test on OVCAR-4 and with OVCAR-5 was > 100 µM (inactive) each time. The GI50 in the test on RPMI-8226, in the test on SF-295, in the test with SK-MEL-28, with SN12C, in the test on SNB-75 and in the test with SW-620 was > 100 µM (inactive) each time. The GI50 in the test on UACC-257 and with UO-31 was > 100 µM (inactive) throughout.
Regarding `N#Cc1c(Nc2nc3ccccc3s2)c2ccccc2n2c1nc1ccccc12`, the GI50 with 786-0 is 29 µM (inactive); in the test on A498, 89.5 µM (inactive); in the test with COLO 205 it was > 100 µM (inactive); in the test on HCT-116, > 100 µM (inactive); in the test with HOP-62, 27.1 µM (inactive); in the test on HT-29, > 100 µM (inactive). Besides, the GI50 in the test with Hs-578T is 45.5 µM (inactive); in the test on LOX IMVI, > 100 µM (inactive); with MDA-MB-231, 48.4 µM (inactive); in the test with NCI-H460, > 100 µM (inactive); with OVCAR-4, > 100 µM (inactive); in the test on OVCAR-5 it was > 100 µM (inactive). Further, the GI50 with RPMI-8226 was > 100 µM (inactive); in the test with SF-295, 82 µM (inactive); in the test on SK-MEL-28 it was > 100 µM (inactive); with SN12C, > 100 µM (inactive); in the test with SNB-75, 24.5 µM (inactive); in the test with SW-620, > 100 µM (inactive). Further, the GI50 with UACC-257 and in the test with UO-31 was > 100 µM (inactive) each time.
Consider `O=C1c2cccnc2C(=O)c2c1nc1ccccc1c2-c1ccc2c3c(nc4ccccc42)C(=O)c2cccnc2-c13`, for which the GI50 with 786-0 was 0.417 µM (active); in the test with A498, 2.69 µM (inactive); with COLO 205, 2.08 µM (inactive); with HCT-116, 0.459 µM (active); in the test on HOP-62, 1.17 µM (inactive); with HT-29, 2.38 µM (inactive). Also, the GI50 in the test with Hs-578T is 1.81 µM (inactive); in the test on LOX IMVI, 0.437 µM (active); in the test on MDA-MB-231 it was 2.21 µM (inactive); in the test on NCI-H460, 1.55 µM (inactive); with OVCAR-4, 1.08 µM (active); in the test with OVCAR-5, 6.43 µM (inactive). Further, the GI50 in the test on RPMI-8226 was 1.63 µM (inactive); with SF-295 it was 2.56 µM (inactive); with SK-MEL-28, 2.55 µM (inactive); with SN12C, 0.912 µM (active); in the test on SNB-75, 2.07 µM (inactive); with SW-620, 0.268 µM (active). The values for the GI50 with UACC-257 and in the test on UO-31 were 2.04 µM (inactive) and 1.24 µM (inactive), respectively.
Consider `OCCCNc1[nH]cnc2nncc1-2`, for which the GI50 in the test on 786-0, in the test on A498, with COLO 205, in the test on HCT-116, in the test with HOP-62 and with HT-29 was > 100 µM (inactive) throughout. Further, the GI50 with Hs-578T, in the test on LOX IMVI, in the test on MDA-MB-231, in the test with NCI-H460, with OVCAR-4 and in the test on OVCAR-5 was > 100 µM (inactive) each time. Further, the GI50 with RPMI-8226, in the test on SF-295, with SK-MEL-28, in the test on SN12C, with SNB-75 and in the test on SW-620 was > 100 µM (inactive) in each case. For the same compound, the GI50 with UACC-257 and with UO-31 was > 100 µM (inactive) throughout.
Regarding `CC(=O)O[C@H]1C(=O)[C@@]2(C)[C@H]([C@H](OC(=O)c3ccccc3)[C@]3(O)C[C@H](OC(=O)[C@H](O)[C@@H](NC(=O)c4ccoc4)c4ccccc4)C(C)=C1C3(C)C)[C@]1(OC(C)=O)CO[C@@H]1C[C@@H]2O`, the GI50 in the test on 786-0 was 0.18 µM (active); with A498, 0.0713 µM (active); with COLO 205, 0.026 µM (active); in the test with HCT-116, 0.0147 µM (active); with HOP-62, 0.212 µM (active); in the test on HT-29 it was < 0.01 µM (active). The GI50 in the test on Hs-578T is 0.0246 µM (active); with LOX IMVI, 0.0215 µM (active); with MDA-MB-231, 0.0434 µM (active); in the test on NCI-H460, 0.023 µM (active); with OVCAR-4, 31.1 µM (inactive); in the test on OVCAR-5, 0.0256 µM (active). Besides, the GI50 in the test on RPMI-8226 is 0.00871 µM (active); with SF-295 it was < 0.01 µM (active); in the test with SK-MEL-28, 0.0532 µM (active); with SN12C it was 0.0338 µM (active); in the test with SNB-75, 0.0112 µM (active); in the test with SW-620, 0.021 µM (active). Further, the values for the GI50 in the test on UACC-257 and with UO-31 were 16 µM (inactive) and 3.39 µM (inactive), respectively.
